Patent EP4745135A1 (Gluetacs Therapeutics (Shanghai) Co., Ltd., priority 2023, dated 2025)

Experiments:
[1] = biological target: T1, IKZF3 (Homo sapiens, UniProt Q96SW2+Q9UKT9); test: Western blot, degradation of substrate protein in hPBMCs; assay type: cell-based; conditions: Western blot, 24 hours of compound treatment, compounds tested at 50 nM and 500 nM (concentration for the table not stated)
T1 construct: effects of the compounds of the present disclosure on the expression of target proteins in cells; endogenous in cells; host or cells: human PBMCs (Milecell Biotechnologies)

[2] = biological target: T2, WEE1 (Homo sapiens, UniProt P30291+Q96SW2); test: as above; assay type: cell-based; conditions: Western blot, 24 hours of compound treatment, compounds tested at 50 nM and 500 nM (concentration for the table not stated)
T2 construct: effects of the compounds of the present disclosure on the expression of target proteins in cells; endogenous in cells; host or cells: human PBMCs (Milecell Biotechnologies)

[3] = biological target: T3, IKZF2 (Homo sapiens, UniProt Q96SW2+Q9UKS7); test: as above; assay type: cell-based; conditions: Western blot, 24 hours of compound treatment, compounds tested at 50 nM and 500 nM (concentration for the table not stated)
T3 construct: effects of the compounds of the present disclosure on the expression of target proteins in cells; endogenous in cells; host or cells: human PBMCs (Milecell Biotechnologies)

[4] = biological target: T4, IKZF1 (Homo sapiens, UniProt Q13422+Q96SW2); test: as above; assay type: cell-based; conditions: Western blot, 24 hours of compound treatment, compounds tested at 50 nM and 500 nM (concentration for the table not stated)
T4 construct: effects of the compounds of the present disclosure on the expression of target proteins in cells; endogenous in cells; host or cells: human PBMCs (Milecell Biotechnologies)

[5] = biological target: T5, CK1α (Homo sapiens, UniProt P48729+Q96SW2); test: as above; assay type: cell-based; conditions: Western blot, 24 hours of compound treatment, compounds tested at 50 nM and 500 nM (concentration for the table not stated)
T5 construct: effects of the compounds of the present disclosure on the expression of target proteins in cells; endogenous in cells; host or cells: human PBMCs (Milecell Biotechnologies)

[6] = system: GSPT1; test: as above; assay type: cell-based, Human; conditions: Western blot, 24 hours of compound treatment, compounds tested at 50 nM and 500 nM (concentration for the table not stated)
[7] = biological target: T6, human Cereblon WT GST-tagged protein (Homo sapiens, UniProt Q96SW2); test: CRBN-binding affinity, HTRF (CEREBLON BINDING kit); conditions: for inhibition at 0.5 µM: read-out: Inhibition Rate at 0.5 µM (%); for inhibition at 2 µM: read-out: Inhibition Rate at 2 µM (%)
T6 construct: purchased CISBIO 64BDCRBNPEH
T6 sequence (Q96SW2 whole entry): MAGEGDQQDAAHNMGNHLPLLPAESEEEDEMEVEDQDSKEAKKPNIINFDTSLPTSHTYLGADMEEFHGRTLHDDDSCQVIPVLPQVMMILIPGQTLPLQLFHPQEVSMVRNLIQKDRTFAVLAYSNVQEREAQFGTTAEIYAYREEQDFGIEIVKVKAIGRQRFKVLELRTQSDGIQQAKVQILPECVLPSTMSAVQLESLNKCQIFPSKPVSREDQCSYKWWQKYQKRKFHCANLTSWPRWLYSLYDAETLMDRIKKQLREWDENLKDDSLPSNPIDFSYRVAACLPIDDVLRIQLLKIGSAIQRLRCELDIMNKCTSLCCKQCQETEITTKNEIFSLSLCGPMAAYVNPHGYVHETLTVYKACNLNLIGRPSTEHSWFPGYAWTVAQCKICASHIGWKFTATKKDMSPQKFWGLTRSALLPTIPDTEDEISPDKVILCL

T3 sequence (Q9UKS7 whole entry): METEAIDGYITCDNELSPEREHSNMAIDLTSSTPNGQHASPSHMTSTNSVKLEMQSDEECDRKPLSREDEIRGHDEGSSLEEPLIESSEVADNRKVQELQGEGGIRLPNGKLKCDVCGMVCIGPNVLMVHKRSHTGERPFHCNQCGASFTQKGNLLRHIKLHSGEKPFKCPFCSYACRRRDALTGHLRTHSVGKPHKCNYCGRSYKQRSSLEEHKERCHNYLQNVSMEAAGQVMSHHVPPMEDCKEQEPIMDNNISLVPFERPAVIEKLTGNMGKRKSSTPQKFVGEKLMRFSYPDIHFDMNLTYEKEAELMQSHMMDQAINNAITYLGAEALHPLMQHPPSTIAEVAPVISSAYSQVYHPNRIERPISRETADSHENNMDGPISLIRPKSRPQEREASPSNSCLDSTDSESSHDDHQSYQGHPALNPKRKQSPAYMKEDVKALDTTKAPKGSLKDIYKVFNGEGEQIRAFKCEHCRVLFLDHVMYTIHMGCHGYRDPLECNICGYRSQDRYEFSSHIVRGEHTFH
T3 sequence (Q96SW2 whole entry): as the sequence (Q96SW2 whole entry) above
T3 sequence (Q16531 whole entry partner): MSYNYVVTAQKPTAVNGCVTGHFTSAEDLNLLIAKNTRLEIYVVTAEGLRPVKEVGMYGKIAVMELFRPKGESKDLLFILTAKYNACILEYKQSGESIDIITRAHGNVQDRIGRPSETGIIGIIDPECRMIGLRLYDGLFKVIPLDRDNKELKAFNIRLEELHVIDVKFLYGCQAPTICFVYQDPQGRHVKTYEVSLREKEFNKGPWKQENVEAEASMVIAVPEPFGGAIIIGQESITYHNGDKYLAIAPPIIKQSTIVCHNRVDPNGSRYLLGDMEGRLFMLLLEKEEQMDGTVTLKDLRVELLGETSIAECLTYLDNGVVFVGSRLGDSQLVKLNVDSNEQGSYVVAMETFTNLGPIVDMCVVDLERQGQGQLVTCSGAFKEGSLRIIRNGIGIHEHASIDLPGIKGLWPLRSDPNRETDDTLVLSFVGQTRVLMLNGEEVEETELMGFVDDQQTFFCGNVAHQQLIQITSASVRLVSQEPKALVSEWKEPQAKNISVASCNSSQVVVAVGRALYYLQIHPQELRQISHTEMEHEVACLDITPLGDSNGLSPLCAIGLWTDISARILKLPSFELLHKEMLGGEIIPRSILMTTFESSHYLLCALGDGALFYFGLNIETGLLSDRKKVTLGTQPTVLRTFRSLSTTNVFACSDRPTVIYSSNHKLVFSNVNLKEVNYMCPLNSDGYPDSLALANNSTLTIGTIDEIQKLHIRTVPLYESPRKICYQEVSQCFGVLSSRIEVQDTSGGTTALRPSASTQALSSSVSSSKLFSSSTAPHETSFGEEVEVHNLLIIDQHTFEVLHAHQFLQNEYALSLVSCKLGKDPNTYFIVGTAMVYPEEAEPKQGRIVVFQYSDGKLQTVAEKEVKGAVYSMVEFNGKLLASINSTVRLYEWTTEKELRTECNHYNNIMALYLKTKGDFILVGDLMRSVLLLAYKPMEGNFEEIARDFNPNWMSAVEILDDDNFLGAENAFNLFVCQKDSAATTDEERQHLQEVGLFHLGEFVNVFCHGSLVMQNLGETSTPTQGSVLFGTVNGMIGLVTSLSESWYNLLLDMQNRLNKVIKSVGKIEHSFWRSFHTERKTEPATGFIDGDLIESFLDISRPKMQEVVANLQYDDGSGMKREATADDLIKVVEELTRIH
T5 sequence (P48729 whole entry): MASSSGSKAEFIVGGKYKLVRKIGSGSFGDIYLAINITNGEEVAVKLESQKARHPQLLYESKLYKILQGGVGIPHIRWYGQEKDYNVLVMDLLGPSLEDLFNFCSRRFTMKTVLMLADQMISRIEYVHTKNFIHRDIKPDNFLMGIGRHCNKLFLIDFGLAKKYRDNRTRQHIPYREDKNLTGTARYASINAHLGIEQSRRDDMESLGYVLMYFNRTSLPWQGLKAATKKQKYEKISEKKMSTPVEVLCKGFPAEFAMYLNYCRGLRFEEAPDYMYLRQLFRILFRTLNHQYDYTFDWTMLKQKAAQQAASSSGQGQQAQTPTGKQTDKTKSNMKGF
T5 sequence (Q96SW2 whole entry): as the sequence (Q96SW2 whole entry) above
T5 sequence (Q16531 whole entry partner): as the sequence (Q16531 whole entry partner) above
T1 sequence (Q9UKT9 whole entry): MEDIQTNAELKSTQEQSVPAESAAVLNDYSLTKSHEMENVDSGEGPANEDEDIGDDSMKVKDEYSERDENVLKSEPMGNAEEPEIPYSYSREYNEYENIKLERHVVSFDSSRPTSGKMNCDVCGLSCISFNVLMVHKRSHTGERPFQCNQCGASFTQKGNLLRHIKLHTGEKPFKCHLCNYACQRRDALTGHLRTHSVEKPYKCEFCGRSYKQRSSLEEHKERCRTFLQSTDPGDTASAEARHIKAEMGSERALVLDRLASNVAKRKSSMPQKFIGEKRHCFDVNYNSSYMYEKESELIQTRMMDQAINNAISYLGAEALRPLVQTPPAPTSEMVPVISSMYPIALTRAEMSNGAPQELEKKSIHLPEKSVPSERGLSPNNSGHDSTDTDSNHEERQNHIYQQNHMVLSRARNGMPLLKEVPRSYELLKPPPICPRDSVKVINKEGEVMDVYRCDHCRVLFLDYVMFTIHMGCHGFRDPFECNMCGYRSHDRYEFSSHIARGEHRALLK
T1 sequence (Q96SW2 whole entry): as the sequence (Q96SW2 whole entry) above
T1 sequence (Q16531 whole entry partner): as the sequence (Q16531 whole entry partner) above
T2 sequence (P30291 whole entry): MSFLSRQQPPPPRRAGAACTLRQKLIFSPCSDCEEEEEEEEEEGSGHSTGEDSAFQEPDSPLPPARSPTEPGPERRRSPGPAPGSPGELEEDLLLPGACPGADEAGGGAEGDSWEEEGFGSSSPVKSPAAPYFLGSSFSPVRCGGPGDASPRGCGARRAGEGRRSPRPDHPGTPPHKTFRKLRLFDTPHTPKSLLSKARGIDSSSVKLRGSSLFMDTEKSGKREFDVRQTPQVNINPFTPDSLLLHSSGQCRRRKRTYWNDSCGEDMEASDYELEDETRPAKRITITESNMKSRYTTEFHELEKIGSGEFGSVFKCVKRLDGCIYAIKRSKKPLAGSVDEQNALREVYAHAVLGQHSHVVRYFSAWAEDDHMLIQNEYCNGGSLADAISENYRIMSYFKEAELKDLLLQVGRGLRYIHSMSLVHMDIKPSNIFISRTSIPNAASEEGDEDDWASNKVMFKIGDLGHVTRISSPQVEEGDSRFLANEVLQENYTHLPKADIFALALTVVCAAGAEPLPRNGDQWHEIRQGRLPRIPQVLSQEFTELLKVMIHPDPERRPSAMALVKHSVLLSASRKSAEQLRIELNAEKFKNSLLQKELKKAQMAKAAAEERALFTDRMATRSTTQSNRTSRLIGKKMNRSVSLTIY
T2 sequence (Q96SW2 whole entry): as the sequence (Q96SW2 whole entry) above
T2 sequence (Q16531 whole entry partner): as the sequence (Q16531 whole entry partner) above
T4 sequence (Q13422 whole entry): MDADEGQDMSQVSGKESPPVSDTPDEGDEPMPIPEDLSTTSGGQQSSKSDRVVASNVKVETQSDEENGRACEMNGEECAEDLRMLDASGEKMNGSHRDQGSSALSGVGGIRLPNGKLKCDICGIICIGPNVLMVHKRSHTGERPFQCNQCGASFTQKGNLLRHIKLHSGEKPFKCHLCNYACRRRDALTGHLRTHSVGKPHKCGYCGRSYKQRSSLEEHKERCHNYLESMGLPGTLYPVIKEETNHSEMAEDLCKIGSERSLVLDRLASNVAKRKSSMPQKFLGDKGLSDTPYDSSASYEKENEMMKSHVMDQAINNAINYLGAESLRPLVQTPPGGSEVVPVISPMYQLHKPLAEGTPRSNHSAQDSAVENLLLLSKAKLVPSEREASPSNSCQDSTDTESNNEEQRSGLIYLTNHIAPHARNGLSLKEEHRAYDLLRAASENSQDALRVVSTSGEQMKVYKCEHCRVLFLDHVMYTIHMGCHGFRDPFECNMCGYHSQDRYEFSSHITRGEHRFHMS
T4 sequence (Q96SW2 whole entry): as the sequence (Q96SW2 whole entry) above
T4 sequence (Q16531 whole entry partner): as the sequence (Q16531 whole entry partner) above

Compound | IKZF3 substrate protein remaining % [1] | Wee1 substrate protein remaining % [2] | IKZF2 substrate protein remaining % [3] | IKZF 1 substrate protein remaining % [4] | CK1α substrate protein remaining % [5] | GSPT1 substrate protein remaining % [6] | inhibition at 0.5 µM [7] | inhibition at 2 µM [7]
O=C1CCC(N2Cc3c(CN4CC=C(c5cncc(Cl)c5Cl)CC4)cccc3C2=S)C(=O)N1 (centres unmarked) [GT-08460, 3-(4-((4,5-dichloro-3',6'-dihydro-[3,4'-bipyridin]-1'(2'H)-yl)methyl)-1-thioxoisoindolin-2-yl)piperidine-2,6-dione] | A (0% ≤ substrate protein remaining % ≤ 80%) | A (0% ≤ substrate protein remaining % ≤ 80%) | B (80%< substrate protein remaining %≤ 100%) | B (80%< substrate protein remaining %≤ 100%) | B (80%< substrate protein remaining %≤ 100%) | B (80%< substrate protein remaining %≤ 100%) | 60 to 80% | 80 to 100%
O=C1CCC(N2Cc3c(CN4CC=C(c5cncc(Cl)c5)CC4)cccc3C2=S)C(=O)N1 (centres unmarked) [GT-08461, 3-(4-((5-chloro-3',6'-dihydro-[3,4'-bipyridin]-1'(2'H)-yl)methyl)-1-thioxoisoindolin-2-yl)piperidine-2,6-dione] | A (0% ≤ substrate protein remaining % ≤ 80%) | A (0% ≤ substrate protein remaining % ≤ 80%) | B (80%< substrate protein remaining %≤ 100%) | B (80%< substrate protein remaining %≤ 100%) | B (80%< substrate protein remaining %≤ 100%) | B (80%< substrate protein remaining %≤ 100%) | 60 to 80% | 80 to 100%
O=C1CCC(N2Cc3c(CN4CC=C(c5ccnc(Cl)c5Cl)CC4)cccc3C2=S)C(=O)N1 (centres unmarked) [GT-08462, 3-(4-((2',3'-dichloro-3,6-dihydro-[4,4'-bipyridin]-1(2H)-yl)methyl)-1-thioxoisoindolin-2-yl)piperidine-2,6-dione] | B (80%< substrate protein remaining %≤ 100%) | A (0% ≤ substrate protein remaining % ≤ 80%) | B (80%< substrate protein remaining %≤ 100%) | B (80%< substrate protein remaining %≤ 100%) | B (80%< substrate protein remaining %≤ 100%) | B (80%< substrate protein remaining %≤ 100%) | 60 to 80% | 80 to 100%
O=C1CCC(N2Cc3c(CN4CC5CCC4CN5c4cccc(Cl)c4Cl)cccc3C2=S)C(=O)N1 (centres unmarked) [GT-08469, 3-(4-((5-(2,3-dichlorophenyl)-2,5-diazabicyclo[2.2.2]octan-2-yl)methyl)-1-thioxoisoindolin-2-yl)piperidine-2,6-dione] | B (80%< substrate protein remaining %≤ 100%) | B (80%< substrate protein remaining %≤ 100%) | B (80%< substrate protein remaining %≤ 100%) | B (80%< substrate protein remaining %≤ 100%) | B (80%< substrate protein remaining %≤ 100%) | A (0% ≤ substrate protein remaining % ≤ 80%) | 40 to 53% | 60 to 80%
O=C1CCC(N2Cc3c(CN4CC5CCC(C4)N5c4cccc(Cl)c4Cl)cccc3C2=S)C(=O)N1 (centres unmarked) [GT-08470, 3-(4-((8-(2,3-dichlorophenyl)-3,8-diazabicyclo[3.2.1]octan-3-yl)methyl)-1-thioxoisoindolin-2-yl)piperidine-2,6-dione] | B (80%< substrate protein remaining %≤ 100%) | B (80%< substrate protein remaining %≤ 100%) | B (80%< substrate protein remaining %≤ 100%) | B (80%< substrate protein remaining %≤ 100%) | B (80%< substrate protein remaining %≤ 100%) | A (0% ≤ substrate protein remaining % ≤ 80%) | 20 to 30% | 53 to 60%
O=C1CCC(N2Cc3c(CN4CCCN(c5cccc(Cl)c5Cl)CC4)cccc3C2=S)C(=O)N1 (centres unmarked) [GT-08472, 3-(4-((4-(2,3-dichlorophenyl)-1,4-diazepan-1-yl)methyl)-1-thioxoisoindolin-2-yl)piperidine-2,6-dione] | B (80%< substrate protein remaining %≤ 100%) | B (80%< substrate protein remaining %≤ 100%) | B (80%< substrate protein remaining %≤ 100%) | B (80%< substrate protein remaining %≤ 100%) | B (80%< substrate protein remaining %≤ 100%) | A (0% ≤ substrate protein remaining % ≤ 80%) | 40 to 53% | 80 to 100%
O=C1CCC(N2Cc3cc(CN4CC=C(c5ccnc(F)c5F)CC4)ccc3C2=S)C(=O)N1 (centres unmarked) [GT-08474, 3-(5-((2',3'-difluoro-3,6-dihydro-[4,4'-bipyridin]-1(2H)-yl)methyl)-1-thioxoisoindolin-2-yl)piperidine-2,6-dione] | B (80%< substrate protein remaining %≤ 100%) | B (80%< substrate protein remaining %≤ 100%) | B (80%< substrate protein remaining %≤ 100%) | B (80%< substrate protein remaining %≤ 100%) | B (80%< substrate protein remaining %≤ 100%) | A (0% ≤ substrate protein remaining % ≤ 80%) | 80 to 100% | 80 to 100%
O=C1CCC(N2Cc3cc(CN4CCC(c5ccnc(Cl)c5Cl)CC4)ccc3C2=S)C(=O)N1 (centres unmarked) [GT-08475, 3-(5-((4-(2,3-dichloropyridin-4-yl)piperidin-1-yl)methyl)-1-thioxoisoindolin-2-yl)piperidine-2,6-dione] | B (80%< substrate protein remaining %≤ 100%) | B (80%< substrate protein remaining %≤ 100%) | B (80%< substrate protein remaining %≤ 100%) | B (80%< substrate protein remaining %≤ 100%) | B (80%< substrate protein remaining %≤ 100%) | A (0% ≤ substrate protein remaining % ≤ 80%) | 60 to 80% | 80 to 100%
O=C1CCC(N2Cc3cc(CN4CC5CCC(C4)N5c4cccc(Cl)c4Cl)ccc3C2=S)C(=O)N1 (centres unmarked) [GT-08479, 3-(5-((8-(2,3-dichlorophenyl)-3,8-diazabicyclo[3.2.1]octan-3-yl)methyl)-1-thioxoisoindolin-2-yl)piperidine-2,6-dione] | B (80%< substrate protein remaining %≤ 100%) | B (80%< substrate protein remaining %≤ 100%) | B (80%< substrate protein remaining %≤ 100%) | B (80%< substrate protein remaining %≤ 100%) | B (80%< substrate protein remaining %≤ 100%) | A (0% ≤ substrate protein remaining % ≤ 80%) | 40 to 53% | 60 to 80%
Cn1cc(C2=CCN(Cc3cccc4c3CN(C3CCC(=O)NC3=O)C4=S)CC2)c2ccc(F)cc21 (centres unmarked) [GT-08493, 3-(4-((4-(6-fluoro-1-methyl-1H-indol-3-yl)-3,6-dihydropyridin-1(2H)-yl)methyl)-1-thioxoisoindolin-2-yl)piperidine-2,6-dione] | B (80%< substrate protein remaining %≤ 100%) | B (80%< substrate protein remaining %≤ 100%) | A (0% ≤ substrate protein remaining % ≤ 80%) | B (80%< substrate protein remaining %≤ 100%) | B (80%< substrate protein remaining %≤ 100%) | A (0% ≤ substrate protein remaining % ≤ 80%) | 40 to 53% | 80 to 100%
